Measured values taken from ChEMBL document CHEMBL1201862, “PubChem BioAssay data set” (2004).
Activity calls are given as the source filed them.

How the values were obtained:
Assay type in all cases: functional
[1] = biological target: T1, Protein RecA (Mycobacterium tuberculosis, UniProt P9WHJ3); experiment: Fluorescence Cell-Free Homogeneous Dose Retest to Identify Inhibitors of RecA-Intein Splicing Activity. [Related pubchem assays (depositor defined):AID2097, AID2223, AID489010, AID492950]
T1 sequence (P9WHJ3 whole entry): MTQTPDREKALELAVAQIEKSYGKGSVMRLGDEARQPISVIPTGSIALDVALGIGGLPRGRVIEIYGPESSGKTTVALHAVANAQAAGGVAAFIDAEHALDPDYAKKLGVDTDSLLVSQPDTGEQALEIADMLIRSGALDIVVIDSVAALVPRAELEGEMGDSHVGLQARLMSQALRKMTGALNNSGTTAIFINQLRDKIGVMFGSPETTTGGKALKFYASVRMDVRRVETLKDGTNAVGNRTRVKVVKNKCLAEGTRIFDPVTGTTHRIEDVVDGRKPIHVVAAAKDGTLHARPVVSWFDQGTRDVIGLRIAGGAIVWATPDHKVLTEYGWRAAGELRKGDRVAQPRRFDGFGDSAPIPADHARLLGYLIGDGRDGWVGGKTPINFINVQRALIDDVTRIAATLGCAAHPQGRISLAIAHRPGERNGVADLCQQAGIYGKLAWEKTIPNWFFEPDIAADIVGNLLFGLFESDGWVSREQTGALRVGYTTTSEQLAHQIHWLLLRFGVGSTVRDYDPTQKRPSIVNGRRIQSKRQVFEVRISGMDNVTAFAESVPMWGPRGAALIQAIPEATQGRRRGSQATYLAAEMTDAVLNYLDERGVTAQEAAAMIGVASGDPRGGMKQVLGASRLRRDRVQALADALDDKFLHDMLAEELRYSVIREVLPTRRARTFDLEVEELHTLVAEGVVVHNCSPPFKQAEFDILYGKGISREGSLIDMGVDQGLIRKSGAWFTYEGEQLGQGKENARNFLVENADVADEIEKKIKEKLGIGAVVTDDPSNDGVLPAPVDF

[2] = growth suppression of beta-catenin-knockout colon cells, dose response, cell-based, HCT116, human colon tumor (AID 1045);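 also: HCT116 colon tumor cells with beta catenin knocked out; cells exposed to compound for 60 hours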
[3] = biological target: T2, Tyrosine-protein phosphatase non-receptor type 22 (Homo sapiens, UniProt Q9Y2R2); experiment: SAR LYP1 Fluorescent Assay using OMFP substrate for In Vitro dose response studies - Set 2. [Related pubchem assays (depositor defined):AID1779, AID1784, AID2140, AID449726, AID488869]
T2 sequence (Q9Y2R2 whole entry): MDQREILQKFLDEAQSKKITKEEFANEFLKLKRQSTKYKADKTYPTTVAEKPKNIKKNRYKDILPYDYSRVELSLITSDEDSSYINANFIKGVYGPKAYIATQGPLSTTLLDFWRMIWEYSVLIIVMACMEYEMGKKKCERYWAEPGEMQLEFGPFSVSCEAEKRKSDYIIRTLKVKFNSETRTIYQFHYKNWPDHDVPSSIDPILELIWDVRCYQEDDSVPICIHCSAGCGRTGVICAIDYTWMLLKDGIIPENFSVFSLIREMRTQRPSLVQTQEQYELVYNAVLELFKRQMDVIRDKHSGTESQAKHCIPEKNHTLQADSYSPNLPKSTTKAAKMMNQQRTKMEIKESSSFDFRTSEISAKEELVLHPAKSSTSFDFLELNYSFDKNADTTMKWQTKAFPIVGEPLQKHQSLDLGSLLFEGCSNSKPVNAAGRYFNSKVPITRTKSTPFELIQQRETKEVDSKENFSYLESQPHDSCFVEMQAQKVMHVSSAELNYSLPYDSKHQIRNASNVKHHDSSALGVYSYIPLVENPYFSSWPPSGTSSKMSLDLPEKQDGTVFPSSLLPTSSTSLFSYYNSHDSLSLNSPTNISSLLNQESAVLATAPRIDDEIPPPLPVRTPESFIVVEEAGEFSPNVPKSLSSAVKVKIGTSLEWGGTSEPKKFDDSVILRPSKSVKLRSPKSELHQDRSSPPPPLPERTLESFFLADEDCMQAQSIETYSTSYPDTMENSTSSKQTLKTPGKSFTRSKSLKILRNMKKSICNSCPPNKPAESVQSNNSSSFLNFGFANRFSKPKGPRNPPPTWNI

SMILES	EC50 [1]	EC50 [2]	IC50 [3]
COc1ccc(Nc2ccc3c(c2)=NC2(CCCCC2)[N+]=3[O-])cc1	4390 nM (active)	1890 nM (active)	–
COc1ccc(/C=C2\SC(=S)N(CCC(=O)Nc3ccc(C(=O)O)cc3)C2=O)cc1OC	–	–	1080 nM (active)
